Test results: BigSolDB 2.1

Cc1c(C(=O)c2c[nH]n(C)c2=O)ccc(S(C)(=O)=O)c1C1=NOCC1
solubility (mole fraction)
Settings | 283.15 K | 288.15 K | 293.15 K | 298.15 K | 303.15 K | 308.15 K | 313.15 K | 318.15 K | 323.15 K
in THF | 0.00274 | 0.0031 | 0.00351 | 0.00397 | 0.00449 | 0.00509 | 0.00576 | 0.00652 | 0.00738
in acetone | 0.00112 | 0.0013 | 0.00151 | 0.00176 | 0.00204 | 0.00236 | 0.00274 | 0.00318 | 0.0037
in acetonitrile | 0.000648 | 0.000778 | 0.000934 | 0.00112 | 0.00134 | 0.00161 | 0.00194 | 0.00232 | 0.00279
in ethanol | 6.16e-05 | 8.08e-05 | 0.000106 | 0.000139 | 0.000182 | 0.000239 | 0.000314 | 0.000412 | 0.000541
in ethyl acetate | 0.000521 | 0.000624 | 0.000747 | 0.000894 | 0.00107 | 0.00128 | 0.00153 | 0.00183 | 0.0022
in isobutanol | 4.16e-05 | 5.6e-05 | 7.53e-05 | 0.000101 | 0.000137 | 0.000184 | 0.000247 | 0.000333 | 0.000449
in isobutyl acetate | 0.000421 | 0.000481 | 0.000549 | 0.000627 | 0.000716 | 0.000818 | 0.000934 | 0.00107 | 0.00122
in isopropanol | 3.8e-05 | 5.11e-05 | 6.87e-05 | 9.23e-05 | 0.000124 | 0.000167 | 0.000224 | 0.000302 | 0.000405
in isopropyl acetate | 0.000297 | 0.000353 | 0.00042 | 0.000499 | 0.000594 | 0.000706 | 0.000839 | 0.000997 | 0.00119
in methanol | 0.000139 | 0.000173 | 0.000215 | 0.000267 | 0.000333 | 0.000414 | 0.000516 | 0.000642 | 0.000799
in methyl acetate | 0.000989 | 0.00116 | 0.00135 | 0.00157 | 0.00184 | 0.00215 | 0.00251 | 0.00293 | 0.00342
in n-butanol | 6.22e-05 | 8.09e-05 | 0.000105 | 0.000137 | 0.000178 | 0.000232 | 0.000301 | 0.000392 | 0.00051
in n-butyl acetate | 0.000355 | 0.000419 | 0.000495 | 0.000584 | 0.00069 | 0.000815 | 0.000962 | 0.00114 | 0.00134
in n-propanol | 5.61e-05 | 7.35e-05 | 9.63e-05 | 0.000126 | 0.000165 | 0.000217 | 0.000284 | 0.000372 | 0.000488
in n-propyl acetate | 0.000415 | 0.000496 | 0.000594 | 0.00071 | 0.000849 | 0.00101 | 0.00121 | 0.00145 | 0.00173
in toluene | 0.000256 | 0.0003 | 0.00035 | 0.00041 | 0.000479 | 0.00056 | 0.000655 | 0.000766 | 0.000895
